ChEMBL document CHEMBL3244383, “Antiinflammatory activity of 17-esters of 6alpha,9alpha-difluoro-21-deoxyprednisolone” (1977)

What was measured:
Type in all cases: functional
[1] = species on record: Rattus norvegicus; assay: Antiexudative activity in rat assessed as inhibition of exudate formation in granuloma pouch at 0.02 umol compound injected into pouch on day 5 measured on day 11 relative to control
[2] = test system: Homo sapiens; assay: Vasoconstrictive activity in human at 0.02 to 0.18 ug applied topically by paper-patch test relative to betamethasone 17-valerate
[3] = species on record: Rattus norvegicus; assay: Antiexudative activity in rat assessed as inhibition of exudate formation in granuloma pouch at 0.002 umol compound injected into pouch on day 5 measured on day 11 relative to control
[4] = test system: Rattus norvegicus; assay: Antiexudative activity in rat assessed as inhibition of exudate formation in granuloma pouch at 0.002 umol, sc administered from day 2 to day 10 measured on day 11 relative to control
[5] = test system: Rattus norvegicus; assay: Antiexudative activity in rat assessed as inhibition of exudate formation in granuloma pouch at 0.02 umol, sc administered from day 2 to day 10 measured on day 11 relative to control

SMILES	inhibition (INH) [1] [%]	fold change (FC) [2]	inhibition (INH) [3] [%]	inhibition (INH) [4] [%]	inhibition (INH) [5] [%]
CCC(=O)O[C@]1(C(C)=O)CC[C@H]2[C@@H]3C[C@H](F)C4=CC(=O)C=C[C@]4(C)[C@@]3(F)[C@@H](O)C[C@@]21C	67	2.5	47		
CCCC(=O)O[C@]1(C(C)=O)CC[C@H]2[C@@H]3C[C@H](F)C4=CC(=O)C=C[C@]4(C)[C@@]3(F)[C@@H](O)C[C@@]21C	81	2.5	60		
C[C@]12C=CC(=O)C=C1[C@@H](F)C[C@H]1[C@@H]3CC[C@](OC(=O)c4ccccc4)(C(=O)CO)[C@@]3(C)C[C@H](O)[C@@]12F	70		46	20	62
CCC(=O)O[C@]1(C(=O)CO)CC[C@H]2[C@@H]3C[C@H](F)C4=CC(=O)C=C[C@]4(C)[C@@]3(F)[C@@H](O)C[C@@]21C	41		<5		
CC(=O)O[C@]1(C(C)=O)CC[C@H]2[C@@H]3C[C@H](F)C4=CC(=O)C=C[C@]4(C)[C@@]3(F)[C@@H](O)C[C@@]21C	13	1.5	18		
CC(=O)[C@@]1(OC(=O)c2ccccc2)CC[C@H]2[C@@H]3C[C@H](F)C4=CC(=O)C=C[C@]4(C)[C@@]3(F)[C@@H](O)C[C@@]21C	90	<=1	71	<5	35
